Measured values: PubChem BioAssay (NCI)
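Step 1: Grow cells in 96-well plates. Step 2: Expose to compound for 48 hours at 5 concentrations. Step 3: Interpolate endpoints linearly; if unreached, use highest concentration. TGI denotes the concentration required for complete inhibition of growth.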

Tests used:
Experiment in all cases: growth of human tumour cells (NCI), 48 h
786-0 renal = test system: 786-0 renal
A549 NSCLC = test system: A549 NSCLC
ACHN renal = test system: ACHN renal
BT-549 breast = test system: BT-549 breast
CAKI-1 renal = test system: CAKI-1 renal
CCRF-CEM leukemia = test system: CCRF-CEM leukemia
COLO 205 colon = test system: COLO 205 colon
DU-145 prostate = test system: DU-145 prostate
EKVX NSCLC = test system: EKVX NSCLC
HCC-2998 colon = test system: HCC-2998 colon
HCT-116 colon = test system: HCT-116 colon
HCT-15 colon = test system: HCT-15 colon
HL-60(TB) leukemia = test system: HL-60(TB) leukemia
HOP-62 NSCLC = test system: HOP-62 NSCLC
HOP-92 NSCLC = test system: HOP-92 NSCLC
HT29 colon = test system: HT29 colon
IGROV1 ovarian = test system: IGROV1 ovarian
K-562 leukemia = test system: K-562 leukemia
M14 melanoma = test system: M14 melanoma
MALME-3M melanoma = test system: MALME-3M melanoma
MCF7 breast = test system: MCF7 breast
MDA-N = test system: MDA-N
MOLT-4 leukemia = test system: MOLT-4 leukemia
NCI-H226 lung = test system: NCI-H226 lung
NCI-H23 lung = test system: NCI-H23 lung
NCI-H460 lung = test system: NCI-H460 lung
NCI-H522 lung = test system: NCI-H522 lung
NCI/ADR-RES ovarian = test system: NCI/ADR-RES ovarian
OVCAR-3 ovarian = test system: OVCAR-3 ovarian
OVCAR-4 ovarian = test system: OVCAR-4 ovarian
OVCAR-5 ovarian = test system: OVCAR-5 ovarian
OVCAR-8 ovarian = test system: OVCAR-8 ovarian
PC-3 prostate = test system: PC-3 prostate
RXF 393 renal = test system: RXF 393 renal
SF-268 CNS = test system: SF-268 CNS
SF-295 CNS = test system: SF-295 CNS
SF-539 CNS = test system: SF-539 CNS
SK-MEL-28 melanoma = test system: SK-MEL-28 melanoma
SK-MEL-5 melanoma = test system: SK-MEL-5 melanoma
SK-OV-3 ovarian = test system: SK-OV-3 ovarian
SN12C renal = test system: SN12C renal
SNB-19 CNS = test system: SNB-19 CNS
SNB-75 CNS = test system: SNB-75 CNS
SW-620 colon = test system: SW-620 colon
TK-10 renal = test system: TK-10 renal
U251 CNS = test system: U251 CNS
UACC-257 melanoma = test system: UACC-257 melanoma
UACC-62 melanoma = test system: UACC-62 melanoma
UO-31 renal = test system: UO-31 renal
HS 578T breast = test system: HS 578T breast
LOX IMVI melanoma = test system: LOX IMVI melanoma
MDA-MB-231 breast = test system: MDA-MB-231 breast
MDA-MB-435 = test system: MDA-MB-435
RPMI-8226 leukemia = test system: RPMI-8226 leukemia
SK-MEL-2 melanoma = test system: SK-MEL-2 melanoma
SR leukemia = test system: SR leukemia
T-47D breast = test system: T-47D breast

Measured: TGI

COc1cc(CNC2=NCCC2)cc(OC)c1OC
not listed: HS 578T breast | LOX IMVI melanoma | MDA-MB-231 breast | MDA-MB-435 | RPMI-8226 leukemia | SK-MEL-2 melanoma | SR leukemia | T-47D breast
> 100 µM: all other assays above

CN1C[C@H]2[C@@H](C1=O)[C@H](c1ccccc1)ON2C
not listed: 786-0 renal | BT-549 breast | EKVX NSCLC | HL-60(TB) leukemia | MALME-3M melanoma | RXF 393 renal | SF-268 CNS | SF-539 CNS | UACC-62 melanoma
> 100 µM: all other assays above
